Values quoted from earlier work as cited in patent US20070141182A1, “Combination of multiple nonteroidal antiinflammatory drugs and muscle relaxants for local treatment of musculoskeletal pain” (priority 2005, published 2007).
One block for each compound: values may come before it.

How the values were obtained:
[1] = compared with more traditional NSAIDs
[2] = for patient ratings of efficacy versus placebo: topical commercial forms
[3] = 75 mg/ml in the donor gel, human skin
[4] = dissolved in lecithin microemulsion gel
[5] = 2.5% gel daily, 10 healthy subjects
[6] = topical gel, 6 patients

Compound: CC(=O)Oc1ccccc1C(=O)O [ASA, acetylsalicylic acid]
decrease in pain (VAS) (oral ASA 500 mg): 15.4%
patients with a poor response (oral administration): 79%

Compound: CC(C(=O)O)c1ccc(-c2ccccc2)c(F)c1 (centres unmarked) [Flurbiprofen, flurbiprofen]
COX-1 / COX-2 isoform selectivity of inhibition (COX-1 and COX-2): inhibit both COX-1 and COX-2 equally

Compound: COc1ccc2cc(CCC(C)=O)ccc2c1 [Nabumetone]
incidence of gastric lesions [1]: lower incidence of gastric lesions
COX-1 / COX-2 isoform selectivity of inhibition (COX-1 and COX-2): more selectively inhibit COX-2

Compound: CN1C(C(=O)Nc2ccccn2)=C(O)c2ccccc2S1(=O)=O [Piroxicam, piroxicam]
COX-1 / COX-2 isoform selectivity of inhibition (COX-1 and COX-2): preferentially inhibit COX-1
patient ratings of efficacy versus placebo [2]: superior efficacy

flux through the skin [3]: 47 μg.h^−1 cm^−2
Compound: CC(C)(C)NCC(O)c1cc(Br)no1 (centres unmarked) [broxaterol]

steady-state flux [4]: about 1 μg h^−1 cm^−2
Compound: O=C(O)Cc1ccccc1Nc1c(Cl)cccc1Cl [diclofenac]

Compound: CCc1cccc2c3c([nH]c12)C(CC)(CC(=O)O)OCC3 (centres unmarked) [etodolac]
incidence of gastric lesions [1]: lower incidence of gastric lesions
COX-1 / COX-2 isoform selectivity of inhibition (COX-1 and COX-2): more selectively inhibit COX-2

Compound: CC(C)Cc1ccc(C(C)C(=O)O)cc1 (centres unmarked) [ibuprofen]
COX-1 / COX-2 isoform selectivity of inhibition (COX-1 and COX-2): inhibit both COX-1 and COX-2 equally
patient ratings of efficacy versus placebo [2]: superior efficacy

Compound: COc1ccc2c(c1)c(CC(=O)O)c(C)n2C(=O)c1ccc(Cl)cc1 [indomethacin]
steady-state flux [4]: about 1 μg h^−1 cm^−2
COX-1 / COX-2 isoform selectivity of inhibition (COX-1 and COX-2): preferentially inhibit COX-1
efficacy of topical versus oral administration ([2]; human, in vivo, po): as effective as therapeutic doses of oral indomethacin
patient ratings of efficacy versus placebo [2]: superior efficacy

plasma concentrations as share of the daily dose applied [5]: 2.6%
ketoprofen concentration in capsular sample [6]: 2.35 µg/g
ketoprofen concentration in intra-articular adipose tissue [6]: 4.7 µg/g
ketoprofen concentration in synovial fluid [6]: 1.4 µg/g
Compound: CC(C(=O)O)c1cccc(C(=O)c2ccccc2)c1 (centres unmarked) [ketoprofen]
patient ratings of efficacy versus placebo [2]: superior efficacy

Compound: Cc1ccc(Cl)c(Nc2ccccc2C(=O)O)c1Cl [meclofenamate]
COX-1 / COX-2 isoform selectivity of inhibition (COX-1 and COX-2): inhibit both COX-1 and COX-2 equally

Compound: CS(=O)(=O)c1ccc(C2=C(c3ccccc3)C(=O)OC2)cc1 [rofecoxib]
COX-1 / COX-2 isoform selectivity of inhibition (COX-1 and COX-2): highly selective and potent inhibitors of COX-2

Compound: O=C(Oc1ccccc1C(=O)O)c1ccccc1O [salsalate]
inhibition of prostaglandins (prostaglandins): only weakly inhibit prostaglandins

Compound: magnesium choline trisalicylate
inhibition of prostaglandins (prostaglandins): only weakly inhibit prostaglandins
